Results published in patent EP1373238B1, “ALKYLXANTHATES AND THEIR USE AS PESTICIDES” (priority 2001, dated 2002).
≈ marks a conversion by molar mass, not a printed value. Where two headings read alike, the source gives them in different places.

Experiments:
Format in all cases: in vivo
[1] = test system: late third instar of Spodoptera litura; assay: Antifeedant activity, painted leaf disks of Ricinus cummunis; parameters: key to A.I (Anti-feedent index): percent protection of treated vs untreated leaf disks; details: for Concentration required for 50% leaf protection EC50 ±S.E: oral feeding, leaf disk
Method: (§1) The average mortality and growth inhibition data of experiments was subjected to IBM AT 386 computer analysis at our laboratory for calculating LC50, LD50, EC50, ED50,etc., and other statistical data. The software used was developed by Reddy et al., 1992.
Methodology for Antifeedant activity: Tobacco caterpillar, Spodoptera litura F., larvae will be reared on Ricinus cummunis L. leaves at 27°C and 65-70% R.H. Known area (cm^2) of leaf disks were painted with exact amount of pure compound (dissolved in acetone) and were dried at room temperature till the carrier solvent evaporated. For each concentration 5 to 6 replicates were prepared and experiments were conducted individually. Control disks were dipped in carrier solvent (acetone) alone. Third instar larvae weighing 200-250 mg are selected from stock culture, starved for 4 hr, and will be used individually for the assay of antifeedant activity. After 12 and 24 hours, leaf area meter was used to measure the consumed area of treated and untreated leaves. Based on the data the percent protection of individual compound was calculated. All these properties were compared with well-known antifeedant isolated from neem kemal 'Azadiractin'. Control and test larvae arc transferred on fresh leaves and'monitored till adult emergence to study the growth and behavioral aspects of the insect.

[2] = test system: Helicoverpa armigera (Hubner); assay: Growth regulatory (IGR) activity, topical application
[3] = test system: Brine shrimp, Artemia salina; assay: Brine shrimp bioassay (toxic activity); details: read-out: LC50 ± S.E.
Method: Brine shrimp (Artemiasalina) eggs were hatched in a shallow rectangular dish filled with artificial seawater, which was prepared with commercial salt mixture and double distilled water. A plastic divider with several 2-mm holes was clamped in the dish to make two unequal compartments. The eggs were sprinkled into the larger compartment that was darkened, while the smaller compartment was illuminated. After 48 hours the phototropic nauplii were collected by pipette from the lighted side, being separated by the divider from their shells.
Twenty shrimps were transferred to each sample vial and artificial seawater was added to make 5 ml. The nauplii can becounted macroscopically in the stem of the pipette against a lighted back ground. A drop of dry yeast suspension (3µg in5ml artificial seawater) was added as food to each vial (Meyer, et al., 1982). Survivors were counted with the aid of a 3 x magnifying glass, after 24 hours, and the percent mortality at each concentration and control was determined. The 24 hour counts were more useful. During control deaths, the data was corrected using Abbot's formula.
as §1

[4] = test system: IV instar larvae of Aedes aegypti; assay: Larvicidal activity against mosquito larvae (WHO procedure, 24 hours exposure); details: read-out: LC50 ± S.E.
Method: To determine the efficacy of different analogues of Alkylxanthates against mosquito larvae, standard procedures as recommended by World Health Organization (1981) were followed with minor modifications. The desired concentration of the test solution was obtained by adding 1 ml of an appropriate stock solution to 249 ml of tap water in 500 ml beaker. Test solutions of different concentrations were prepared by diluting the stock solution in dechlorinated and filtered tap water followed by thorough mixing. Tween -80 [Poly (oxyethylene)n - sorbitan monooleate] was used as an emulsifier at the concentration of 0.002% (v/v) to the final test solution whenever required. Control solutions were prepared in tapwater using acetone or ethanol and Tween -80 (0.002%). To each of the -test concentrations, 25 late third or early fourth instar larvae which were acclimatized earlier were added. At least three replicates of each of the tests were made. Based on the results, five to ten suitable concentrations, which produced 10 to 100% mortality, were selected for detailed study and for calculating LC50 values. Mortality was observed 24 hours after exposing the larvaeto test solutions and the data was corrected for control mortality if any, by using Abbot's formula (Abbot 1925). All tests were carried out at a room temperature maintained at 28 ± 1°C.
as §1

[5] = IV instar larvae, mortality after 24 hours

| SMILES | A.I (Anti-feedent index) ([1]; 10 µg/sq.cm.) | Percent leaf consumption 12 hr ([1]; 10 µg/sq.cm.) [%] | Percent leaf consumption 24 hr ([1]; 10 µg/sq.cm.) [%] | A.I (Anti-feedent index) ([1]; 15 µg/sq.cm.) | Percent leaf consumption 12 hr ([1]; 15 µg/sq.cm.) [%] | Percent leaf consumption 24 hr ([1]; 15 µg/sq.cm.) [%] | A.I (Anti-feedent index) ([1]; 20 µg/sq.cm.) | Percent leaf consumption 12 hr ([1]; 20 µg/sq.cm.) [%] | Percent leaf consumption 24 hr ([1]; 20 µg/sq.cm.) [%] | Concentration required for 50% leaf protection EC50 ±S.E [1] | LC50 ([4]; iv, 24 h) [µg/mL] | LC50 ([3]; mortality after 24 hours) [µg/mL] | A.I (Anti-feedent index) ([1]; 25 µg/sq.cm.) | Percent leaf consumption 12 hr ([1]; 25 µg/sq.cm.) [%] | Percent leaf consumption 24 hr ([1]; 25 µg/sq.cm.) [%] | LC50 [4, 5] [µg/mL] | further results |
| --- | --- | --- | --- | --- | --- | --- | --- | --- | --- | --- | --- | --- | --- | --- | --- | --- | --- |
| C/C=C(\C)C(=O)O[C@H]1C[C@@H](OC(C)=O)[C@@]2(C(=O)OC)CO[C@H]3[C@@H](O)[C@@](C)([C@]45O[C@@]4(C)[C@H]4C[C@@H]5O[C@@H]5OC=C[C@@]54O)[C@H]4[C@]1(CO[C@]4(O)C(=O)OC)[C@@H]32 [Azadiractin, reference compound] | 48.09 | 18.6 | 33.3 | 54.98 | 16.4 | 27.6 | 76.42 | 4.2 | 12.7 | 6.34±.77 µg/cm^2 | – | – | – | – | – | – | A.I (Anti-feedent index) ([1]; 5.0 µg/sq.cm.): 24.84; Percent leaf consumption 12 hr ([1]; 5.0 µg/sq.cm.): 33.7%; Percent leaf consumption 24 hr ([1]; 5.0 µg/sq.cm.): 57.2%; IGR activity, mode of action [2]: less larvicidal activity, minimized in the formation of normal pupae and emergence of normal adults |
| CC[C@@]1(O)C(=O)OCc2c1cc1n(c2=O)Cc2cc3ccccc3nc2-1 [Chamtothecin, reference compound] | – | – | – | – | – | – | – | – | – | – | – | – | – | – | – | – | LC50 ([3]; 24 h): 2.53 ± 0.43 µg/mL (≈ 7.26 µM) |
| S=C(OCC1CCCO1)SCSC(=S)OCC1CCCO1 (stereo not shown) [Compound 1, Methylene Bis(tetrahydrofurfurylxanthate)] | – | – | – | – | – | – | – | – | – | 37.21±9.67 µg/cm^2 | 3.77 ± 0.59 (≈ 10.2 µM) | 5.63 ± 0.62 (≈ 15.3 µM) | 22.42 | 31.5 | 60.2 | – | A.I (Anti-feedent index) ([1]; 12.5 µg/sq.cm.): 8.20; Percent leaf consumption 12 hr ([1]; 12.5 µg/sq.cm.): 48.6%; Percent leaf consumption 24 hr ([1]; 12.5 µg/sq.cm.): 80.6%; A.I (Anti-feedent index) ([1]; 35 µg/sq.cm.): 33.52; Percent leaf consumption 12 hr ([1]; 35 µg/sq.cm.): 25.9%; Percent leaf consumption 24 hr ([1]; 35 µg/sq.cm.): 47.3%; A.I (Anti-feedent index) ([1]; 50 µg/sq.cm.): 35.23; Percent leaf consumption 12 hr ([1]; 50 µg/sq.cm.): 22.1%; Percent leaf consumption 24 hr ([1]; 50 µg/sq.cm.): 45.5% |
| CCCCOC(=S)SCc1cccc(F)c1 [Compound 2, m-Fluorobenzyl (n-butylxanthate)] | – | – | – | – | – | – | – | – | – | – | 12.5 ± 1.24 (≈ 48.5 µM) | 19 ± 2.83 (≈ 73.5 µM) | – | – | – | – | – |
| CC(C)COC(=S)SCc1cccc(F)c1 [Compound 3, m-Fluorobenzyl (isobutylxanthate)] | 11.63 | 50.4 | 75.2 | 16.07 | 33.24 | 68.7 | 27.86 | 24.7 | 53.6 | 19.65±2.99 µg/cm^2 | 11.8 ± 2.35 (≈ 45.6 µM) | 22.5 ± 3.26 (≈ 87.2 µM) | 48.67 | 12.5 | 32.8 | – | – |
| CC(C)COC(=S)SCCSC(=S)OCC(C)C [Compound 4, Ethylene Bis (isobutylxanthate)] | – | – | – | – | – | – | – | – | – | – | – | 25.8 ± 2.9 (≈ 78.9 µM) | – | – | – | 8.06 ± 0.22 (≈ 24.7 µM) | – |
| CCCCOC(=S)SCSC(=S)OCCCC [Compound 5, Methylene Bis (n-butytxanthate)] | 5.50 | 48.5 | 85.1 | 22.27 | 35.2 | 60.4 | 35.14 | 22.5 | 45.6 | 17.11±1.36 µg/cm^2 | – | 34.6 ± 3.91 (≈ 111 µM) | 64.22 | 3.5 | 20.7 | 5.33 ± 0.97 (≈ 17.1 µM) | A.I (Anti-feedent index) ([1]; 30 µg/sq.cm.): 85.37; Percent leaf consumption 12 hr ([1]; 30 µg/sq.cm.): -0- %; Percent leaf consumption 24 hr ([1]; 30 µg/sq.cm.): 7.5% |
| CCCCOC(=S)SCc1ccc(CSC(=S)OCCCC)cc1 [Compound 12, p-Xylene Bis (n-butylcanthate)] | 2.59 | 57.3 | 90.2 | 5.97 | 62.4 | 84.3 | 24.51 | 35.2 | 57.6 | 20.45±1.76 µg/cm^2 | – | 45.2 ± 5.63 (≈ 112 µM) | 58.86 | 20.5 | 24.6 | 7.35 ± 0.51 (≈ 18.3 µM) | – |
